Measured values taken from ChEMBL document CHEMBL2375249, “Synthesis and biological evaluation of novel pyrrolidine-2,5-dione derivatives as potential antidepressant agents. Part 1” (Eur J Med Chem, 2013).
Activity calls are given as the source filed them. The calls are words filed in the database; no cut-off is given here.

Columns and labels:
Mus musculus [1] = experiment: Antidepressant activity in CD1 mouse assessed as reduction in immobility time at 1 to 2 mg/kg, sc measured during final 4 mins in 6 mins test session after 2 mins habituation period by forced swimming test; type: functional, organism-based
[2] = biological target: Sodium-dependent serotonin transporter (Rattus norvegicus, UniProt P31652); experiment: Displacement of [3H]-citalopram from SERT in rat cerebral cortex after 1 hr by liquid scintillation counting analysis; type: tissue-based
Sequence of Sodium-dependent serotonin transporter (P31652 whole entry): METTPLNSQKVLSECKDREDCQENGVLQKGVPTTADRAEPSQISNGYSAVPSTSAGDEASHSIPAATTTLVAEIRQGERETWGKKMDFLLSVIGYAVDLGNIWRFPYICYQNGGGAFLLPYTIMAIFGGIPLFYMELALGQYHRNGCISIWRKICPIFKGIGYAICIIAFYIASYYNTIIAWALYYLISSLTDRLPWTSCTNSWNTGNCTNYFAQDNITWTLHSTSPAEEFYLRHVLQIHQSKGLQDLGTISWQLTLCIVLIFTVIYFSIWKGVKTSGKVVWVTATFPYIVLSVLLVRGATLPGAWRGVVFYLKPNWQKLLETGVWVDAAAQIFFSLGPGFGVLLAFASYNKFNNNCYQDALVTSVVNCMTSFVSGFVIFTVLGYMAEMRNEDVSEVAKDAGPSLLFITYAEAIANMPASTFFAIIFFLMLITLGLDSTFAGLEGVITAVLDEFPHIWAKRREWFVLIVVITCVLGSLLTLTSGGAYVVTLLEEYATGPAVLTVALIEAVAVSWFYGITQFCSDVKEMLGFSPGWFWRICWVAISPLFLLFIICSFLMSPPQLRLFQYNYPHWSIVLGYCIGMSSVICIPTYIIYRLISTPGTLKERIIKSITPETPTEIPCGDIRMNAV

[3] = biological target: T1, 5-hydroxytryptamine receptor 1A (Rattus norvegicus, UniProt P19327); experiment: Displacement of [3H]-8-OH-DPAT from 5HT1A receptor in rat hippocampal membranes after 20 mins; type: cell membranes, Hippocampus, Membrane
T1 sequence (P19327 whole entry): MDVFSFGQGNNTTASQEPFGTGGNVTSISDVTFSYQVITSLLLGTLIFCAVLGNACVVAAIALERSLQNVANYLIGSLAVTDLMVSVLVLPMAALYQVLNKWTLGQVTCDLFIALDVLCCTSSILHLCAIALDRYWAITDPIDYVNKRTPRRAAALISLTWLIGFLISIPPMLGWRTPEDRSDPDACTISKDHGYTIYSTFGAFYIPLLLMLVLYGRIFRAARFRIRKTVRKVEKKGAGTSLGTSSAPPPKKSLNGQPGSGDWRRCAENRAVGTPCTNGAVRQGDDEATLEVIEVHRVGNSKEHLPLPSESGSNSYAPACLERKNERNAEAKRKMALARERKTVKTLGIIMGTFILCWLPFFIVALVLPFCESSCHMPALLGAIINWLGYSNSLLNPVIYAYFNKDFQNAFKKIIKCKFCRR

[4] = biological target: 5-hydroxytryptamine receptor 7 (Homo sapiens, UniProt P34969); experiment: Displacement of [3H]-5CT from human 5HT7 receptor expressed in HEK293 cells after 1 hr; type: cell-based
Sequence of 5-hydroxytryptamine receptor 7 (P34969 whole entry): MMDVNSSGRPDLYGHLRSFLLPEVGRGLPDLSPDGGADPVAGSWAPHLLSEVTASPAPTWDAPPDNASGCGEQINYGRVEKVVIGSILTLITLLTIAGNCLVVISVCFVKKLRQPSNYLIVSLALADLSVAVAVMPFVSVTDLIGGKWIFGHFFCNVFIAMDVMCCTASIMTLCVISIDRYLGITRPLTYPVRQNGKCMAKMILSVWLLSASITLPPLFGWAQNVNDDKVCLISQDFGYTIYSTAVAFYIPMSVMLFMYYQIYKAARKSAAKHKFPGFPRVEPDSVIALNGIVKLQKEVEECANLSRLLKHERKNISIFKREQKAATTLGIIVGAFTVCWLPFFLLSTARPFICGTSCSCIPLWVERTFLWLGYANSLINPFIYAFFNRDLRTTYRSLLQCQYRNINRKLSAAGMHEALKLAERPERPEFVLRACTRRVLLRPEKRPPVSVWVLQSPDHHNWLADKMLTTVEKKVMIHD

[5] = biological target: 5-hydroxytryptamine receptor 6 (Homo sapiens, UniProt P50406); experiment: Displacement of [3H]-LSD from human 5HT6 receptor expressed in HEK293 cells after 1 hr; type: cell-based
Sequence of 5-hydroxytryptamine receptor 6 (P50406 whole entry): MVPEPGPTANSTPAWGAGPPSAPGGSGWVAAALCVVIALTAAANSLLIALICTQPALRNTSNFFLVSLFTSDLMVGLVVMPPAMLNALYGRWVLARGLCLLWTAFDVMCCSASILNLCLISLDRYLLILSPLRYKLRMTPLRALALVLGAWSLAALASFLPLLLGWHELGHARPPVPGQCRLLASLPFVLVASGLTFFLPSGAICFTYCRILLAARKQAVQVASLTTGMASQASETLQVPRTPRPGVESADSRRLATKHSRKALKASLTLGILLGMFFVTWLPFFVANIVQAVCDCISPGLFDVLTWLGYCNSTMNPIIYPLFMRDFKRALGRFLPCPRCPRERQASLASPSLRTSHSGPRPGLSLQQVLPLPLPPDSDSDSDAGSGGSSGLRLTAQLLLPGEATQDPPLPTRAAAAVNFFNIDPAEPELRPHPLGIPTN

D(2) dopamine receptor = D(2) dopamine receptor (Homo sapiens, UniProt P14416); experiment: Displacement of [3H]-raclopride from human dopamine D2L receptor expressed in HEK293 cells after 1 hr; type: cell-based
Sequence of D(2) dopamine receptor (P14416 whole entry): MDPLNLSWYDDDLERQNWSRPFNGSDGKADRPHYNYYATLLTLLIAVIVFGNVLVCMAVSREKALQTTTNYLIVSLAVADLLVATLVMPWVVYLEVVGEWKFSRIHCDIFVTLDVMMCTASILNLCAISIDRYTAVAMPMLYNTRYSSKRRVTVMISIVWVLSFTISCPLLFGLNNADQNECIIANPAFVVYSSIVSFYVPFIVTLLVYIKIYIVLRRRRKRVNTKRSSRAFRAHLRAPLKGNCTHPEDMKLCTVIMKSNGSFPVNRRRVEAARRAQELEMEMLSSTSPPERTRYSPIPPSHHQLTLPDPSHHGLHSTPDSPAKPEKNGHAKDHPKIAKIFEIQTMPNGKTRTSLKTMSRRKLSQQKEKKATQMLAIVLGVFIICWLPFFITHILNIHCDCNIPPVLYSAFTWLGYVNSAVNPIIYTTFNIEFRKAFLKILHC

[6] = biological target: 5-hydroxytryptamine receptor 2A (Rattus norvegicus, UniProt P14842); experiment: Displacement of [3H]-ketanserin from 5HT2A in rat cerebral cortex 20 mins by liquid scintillation counting analysis; type: tissue-based
Sequence of 5-hydroxytryptamine receptor 2A (P14842 whole entry): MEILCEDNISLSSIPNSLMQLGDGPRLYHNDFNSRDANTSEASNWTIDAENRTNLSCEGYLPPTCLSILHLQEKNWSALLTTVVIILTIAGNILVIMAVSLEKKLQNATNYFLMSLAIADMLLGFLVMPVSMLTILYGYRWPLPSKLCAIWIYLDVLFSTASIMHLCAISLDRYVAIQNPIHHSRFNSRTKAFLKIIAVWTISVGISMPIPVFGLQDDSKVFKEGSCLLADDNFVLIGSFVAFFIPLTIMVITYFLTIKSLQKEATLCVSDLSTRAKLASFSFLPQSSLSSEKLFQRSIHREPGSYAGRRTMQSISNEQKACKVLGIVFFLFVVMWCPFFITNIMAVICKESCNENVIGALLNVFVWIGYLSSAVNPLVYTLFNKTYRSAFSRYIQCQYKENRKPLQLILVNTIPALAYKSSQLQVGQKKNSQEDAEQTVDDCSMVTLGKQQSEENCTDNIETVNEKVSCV

Mus musculus [7] = experiment: Induction of hypothermia in CD1 mouse assessed as change in rectal body temperature at 5 mg/kg, ip administered 30 mins prior to test measured after 60 mins in presence of WAY 100635 relative to control; type: functional, organism-based; parameters: dose 5 mg/kg
Mus musculus [8] = experiment: Induction of hypothermia in CD1 mouse assessed as change in rectal body temperature at 5 mg/kg, ip administered 30 mins prior to test measured after 30 mins in presence of WAY 100635 relative to control; type: functional, organism-based; parameters: dose 5 mg/kg
Mus musculus [9] = experiment: Induction of hypothermia in CD1 mouse assessed as change in rectal body temperature at 5 mg/kg, ip administered 30 mins prior to test measured after 120 mins relative to control; type: functional, organism-based; parameters: dose 5 mg/kg
Mus musculus [10] = experiment: Induction of hypothermia in CD1 mouse assessed as change in rectal body temperature at 5 mg/kg, ip administered 30 mins prior to test measured after 90 mins relative to control; type: functional, organism-based; parameters: dose 5 mg/kg
Mus musculus [11] = experiment: Induction of hypothermia in CD1 mouse assessed as change in rectal body temperature at 5 mg/kg, ip administered 30 mins prior to test measured after 60 mins relative to control; type: functional, organism-based; parameters: dose 5 mg/kg
Mus musculus [12] = experiment: Induction of hypothermia in CD1 mouse assessed as change in rectal body temperature at 5 mg/kg, ip administered 30 mins prior to test measured after 30 mins relative to control; type: functional, organism-based; parameters: dose 5 mg/kg
Mus musculus [13] = experiment: Induction of hypothermia in CD1 mouse assessed as change in rectal body temperature at 2.5 mg/kg, ip administered 30 mins prior to test measured after 120 mins relative to control; type: functional, organism-based; parameters: dose 2.5 mg/kg
Mus musculus [14] = experiment: Induction of hypothermia in CD1 mouse assessed as change in rectal body temperature at 2.5 mg/kg, ip administered 30 mins prior to test measured after 90 mins relative to control; type: functional, organism-based; parameters: dose 2.5 mg/kg
Mus musculus [15] = experiment: Induction of hypothermia in CD1 mouse assessed as change in rectal body temperature at 2.5 mg/kg, ip administered 30 mins prior to test measured after 60 mins relative to control; type: functional, organism-based; parameters: dose 2.5 mg/kg
Mus musculus [16] = experiment: Induction of hypothermia in CD1 mouse assessed as change in rectal body temperature at 2.5 mg/kg, ip administered 30 mins prior to test measured after 30 mins relative to control; type: functional, organism-based; parameters: dose 2.5 mg/kg
Mus musculus [17] = experiment: Antidepressant activity in CD1 mouse assessed as reduction in immobility time at 2.5 to 5 mg/kg, ip measured during final 4 mins in 6 mins test session after 2 mins habituation period by forced swimming test; type: functional, organism-based
Mus musculus [18] = experiment: Induction of hypothermia in CD1 mouse assessed as change in rectal body temperature at 2.5 mg/kg, ip administered 30 mins prior to test measured after 60 mins in presence of WAY 100635 relative to control; type: functional, organism-based; parameters: dose 2.5 mg/kg
Mus musculus [19] = experiment: Induction of hypothermia in CD1 mouse assessed as change in rectal body temperature at 2.5 mg/kg, ip administered 30 mins prior to test measured after 30 mins in presence of WAY 100635 relative to control; type: functional, organism-based; parameters: dose 2.5 mg/kg

With `CCCN(CCC)C1CCc2cccc(O)c2C1` (configuration not stated) the Activity (Mus musculus [1]) was “Active”.

For `O=C1CC(c2c[nH]c3ccccc23)C(=O)N1CCCN1CCC(c2c[nH]c3ccc(F)cc23)CC1` (racemic), the Ki [2] was 215 nM and the Ki [3] was 122 nM.

`COc1ccc2[nH]cc(C3CCN(CCCN4C(=O)CC(c5c[nH]c6ccccc56)C4=O)CC3)c2c1` (racemic) was tested, and the Ki [4] was 589 nM, the Ki [5] was 264 nM and the Ki (D(2) dopamine receptor) was 343 nM. For the same compound, the Ki [6] was 11600 nM, the Ki [2] was 221 nM and the Ki [3] was 32.6 nM.

Compound `O=C1CC(c2c[nH]c3ccccc23)C(=O)N1CCN1CCC(c2c[nH]c3ccccc23)CC1` (racemic) has a Ki [2] of 56 nM and a Ki [3] of 364 nM.

`O=C1CC(c2c[nH]c3ccccc23)C(=O)N1CCN1CCC(c2c[nH]c3ccc(F)cc23)CC1` (racemic) was tested, and the Ki [4] was 1160 nM, the Ki [5] was 1150 nM and the Ki (D(2) dopamine receptor) was 80 nM. It also gave a Ki [6] of 384 nM, a Ki [2] of 381 nM and a Ki [3] of 8.1 nM.

With `COc1ccc2[nH]cc(C3CCN(CCN4C(=O)CC(c5c[nH]c6ccccc56)C4=O)CC3)c2c1` (racemic) the Ki [2] was 1850 nM and the Ki [3] was 352 nM.

Compound `O=C1CC(c2c[nH]c3ccccc23)C(=O)N1CCCCN1CC=C(c2c[nH]c3ccccc23)CC1` (racemic) has a deltaT (Mus musculus [7]) of -1.2 °C, a deltaT (Mus musculus [8]) of -1.2 °C and a deltaT (Mus musculus [9]) of -1.4 °C. It also gave a deltaT (Mus musculus [10]) of -1.5 °C, a deltaT (Mus musculus [11]) of -1.4 °C and a deltaT (Mus musculus [12]) of -1.5 °C. The deltaT (Mus musculus [13]) was -0.9 °C, the deltaT (Mus musculus [14]) was -0.9 °C and the deltaT (Mus musculus [15]) was -0.6 °C. It also gave a deltaT (Mus musculus [16]) of -0.7 °C, a Ki [2] of 11.3 nM and a Ki [3] of 12.5 nM.

For `O=C1CC(c2c[nH]c3ccccc23)C(=O)N1CCCCN1CC=C(c2c[nH]c3ccc(Cl)cc23)CC1` (racemic), the Ki [2] was 74.4 nM and the Ki [3] was 68.7 nM.

In the case of `O=C1CC(c2c[nH]c3ccccc23)C(=O)N1CCCCN1CC=C(c2c[nH]c3ccc(Br)cc23)CC1` (racemic), the Ki [2] is reported as 208 nM and the Ki [3] is reported as 59.1 nM.

For `O=C1CC(c2c[nH]c3ccccc23)C(=O)N1CCCCN1CC=C(c2c[nH]c3ccc(F)cc23)CC1` (racemic), the Activity (Mus musculus [17]) was “inactive”, the deltaT (Mus musculus [7]) was -0.2 °C and the deltaT (Mus musculus [8]) was -0.5 °C. The deltaT (Mus musculus [9]) was -1.2 °C, the deltaT (Mus musculus [10]) was -1.3 °C and the deltaT (Mus musculus [11]) was -1.5 °C. It also gave a deltaT (Mus musculus [12]) of -1.6 °C, a deltaT (Mus musculus [13]) of -0.7 °C and a deltaT (Mus musculus [14]) of -0.7 °C. It also gave a deltaT (Mus musculus [15]) of -0.7 °C, a deltaT (Mus musculus [16]) of -0.6 °C and a Ki [2] of 20 nM. The Ki [3] was 17.6 nM.

In the case of `COc1ccc2[nH]cc(C3=CCN(CCCCN4C(=O)CC(c5c[nH]c6ccccc56)C4=O)CC3)c2c1` (racemic), the Activity (Mus musculus [17]) is reported as “inactive”, the deltaT (Mus musculus [7]) is reported as -0.3 °C and the deltaT (Mus musculus [8]) is reported as -0.4 °C. For the same compound, the deltaT (Mus musculus [9]) was -0.9 °C, the deltaT (Mus musculus [10]) was -1.1 °C and the deltaT (Mus musculus [11]) was -1.1 °C. It also gave a deltaT (Mus musculus [12]) of -1.1 °C, a deltaT (Mus musculus [13]) of -0.4 °C and a deltaT (Mus musculus [14]) of -0.7 °C. The deltaT (Mus musculus [15]) was -0.5 °C, the deltaT (Mus musculus [16]) was -0.5 °C and the Ki [2] was 46.2 nM. The Ki [3] was 3.2 nM.

Compound `O=C1CC(c2c[nH]c3ccccc23)C(=O)N1CCCN1CC=C(c2c[nH]c3ccccc23)CC1` (racemic) has a Ki [2] of 4 nM and a Ki [3] of 161 nM.

In the case of `O=C1CC(c2c[nH]c3ccccc23)C(=O)N1CCCN1CC=C(c2c[nH]c3ccc(Cl)cc23)CC1` (racemic), the Ki [2] is reported as 50.7 nM and the Ki [3] is reported as 285 nM.

`O=C1CC(c2c[nH]c3ccccc23)C(=O)N1CCCN1CC=C(c2c[nH]c3ccc(Br)cc23)CC1` (racemic) showed a Ki [2] of 182 nM and a Ki [3] of 111 nM.

In the case of `O=C1CC(c2c[nH]c3ccccc23)C(=O)N1CCCN1CC=C(c2c[nH]c3ccc(F)cc23)CC1` (racemic), the Ki [2] is reported as 5.2 nM and the Ki [3] is reported as 106 nM.

For `COc1ccc2[nH]cc(C3=CCN(CCCN4C(=O)CC(c5c[nH]c6ccccc56)C4=O)CC3)c2c1` (racemic), the Ki [2] was 125 nM and the Ki [3] was 210 nM.

For `O=C1CC(c2c[nH]c3ccccc23)C(=O)N1CCN1CC=C(c2c[nH]c3ccccc23)CC1` (racemic), the Ki [2] was 33.8 nM and the Ki [3] was 250 nM.

`O=C1CC(c2c[nH]c3ccccc23)C(=O)N1CCN1CC=C(c2c[nH]c3ccc(Cl)cc23)CC1` (racemic) gave a Ki [2] of 96.7 nM and a Ki [3] of 406 nM.

For `O=C1CC(c2c[nH]c3ccccc23)C(=O)N1CCN1CC=C(c2c[nH]c3ccc(Br)cc23)CC1` (racemic), the Ki [2] was 673 nM and the Ki [3] was 324 nM.

With `O=C1CC(c2c[nH]c3ccccc23)C(=O)N1CCN1CC=C(c2c[nH]c3ccc(F)cc23)CC1` (racemic) the Ki [2] was 68.4 nM and the Ki [3] was 372 nM.

`COc1ccc2[nH]cc(C3=CCN(CCN4C(=O)CC(c5c[nH]c6ccccc56)C4=O)CC3)c2c1` (racemic) gave a Ki [2] of 784 nM and a Ki [3] of 1740 nM.

`O=C1CC(c2c[nH]c3ccccc23)C(=O)N1CCCCN1CCC(c2c[nH]c3ccccc23)CC1` (racemic) gave a deltaT (Mus musculus [18]) of -1.1 °C, a deltaT (Mus musculus [19]) of -1 °C and a deltaT (Mus musculus [9]) of -2.1 °C. For the same compound, the deltaT (Mus musculus [10]) was -2.1 °C, the deltaT (Mus musculus [11]) was -2.8 °C and the deltaT (Mus musculus [12]) was -2.4 °C. The deltaT (Mus musculus [13]) was -1.2 °C, the deltaT (Mus musculus [14]) was -1.3 °C and the deltaT (Mus musculus [15]) was -1.5 °C. It also gave a deltaT (Mus musculus [16]) of -1.3 °C, a Ki [2] of 5.7 nM and a Ki [3] of 15.7 nM.

`O=C1CC(c2c[nH]c3ccccc23)C(=O)N1CCCCN1CCC(c2c[nH]c3ccc(F)cc23)CC1` (racemic) showed a Ki [4] of 196 nM, a Ki [5] of 63 nM and a Ki (D(2) dopamine receptor) of 14 nM. It also gave a Ki [6] of 71 nM, a Ki [2] of 505 nM and a Ki [3] of 7.5 nM.

With `COc1ccc2[nH]cc(C3CCN(CCCCN4C(=O)CC(c5c[nH]c6ccccc56)C4=O)CC3)c2c1` (racemic) the Ki [4] was 345 nM, the Ki [5] was 159 nM and the Ki (D(2) dopamine receptor) was 161 nM. It also gave a Ki [6] of 498 nM, a Ki [2] of 210 nM and a Ki [3] of 2.2 nM.

`O=C1CC(c2c[nH]c3ccccc23)C(=O)N1CCCN1CCC(c2c[nH]c3ccccc23)CC1` (racemic) gave a Ki [2] of 354 nM and a Ki [3] of 68.5 nM.
